Data on nine compounds can be found in ChEMBL document CHEMBL3244234, “Alteration of relative affinities toward myocardial and vascular beta adrenoceptors induced by side-chain substitution of aryloxypropanolamines” (J Med Chem, 1978).

Data set [1] relates to Felis catus. As to the kind of experiment: In vivo inhibition of beta-1 adrenoceptor in vagotomized cat assessed as inhibition of isoproterenol-induced tachycardia. It counts as functional, organism-based. The note with it: read-out: pA2 (converted).
Data set [2] deals with Felis catus. As to the kind of experiment: In vivo inhibition of beta-2 adrenoceptor in chloralose-anesthetized vagotomized cat assessed as inhibition of isoproterenol-induced fall in diastolic pressure. The data set is classed as functional, organism-based. Conditions: read-out: pA2 (converted).
For data set [3], the system named is Felis catus. As to the kind of experiment: Potency ratio for in vivo inhibition of beta-1 adrenoceptor in vagotomized cat assessed as inhibition of isoproterenol-induced tachycardia to in vivo inhibition of beta-2 adrenoceptor in chloralose-anesthetized vagotomized cat assessed as inhibition of isoproterenol-induced fall in diastolic pressure. It counts as functional.

Data set [4] can be described thus: 1-Octanol-phosphate buffer apparent partition coefficient, log P of the compound at pH 7.4. The data set is classed as physicochemical.
The test system of data set [5] is Felis catus. As to the kind of experiment: Potency ratio for in vivo inhibition of beta-2 adrenoceptor in chloralose-anesthetized vagotomized cat assessed as inhibition of isoproterenol-induced fall in diastolic pressure to in vivo inhibition of beta-1 adrenoceptor in vagotomized cat assessed as inhibition of isoproterenol-induced tachycardia. The data set is classed as functional.

The species named for a further data set is Cavia porcellus. As to the kind of experiment: Selectivity for guinea pig right atria beta-1 adrenoceptor over guinea pig trachea beta-2 adrenoceptor.

By logD is commonly meant lipophilicity at a set pH, counting ionised and neutral species. On to `COc1ccc(CCNCC(O)COc2ccccc2)cc1OC.Cl` (racemic), for which the Kb in the data set with Felis catus [1] is 63.1 nM; in the data set on Felis catus [2] it was 692 nM. The Ratio with Felis catus [3] was 10. Also, the logD in data set [4] was 1.7.

Turning to `CC(C)N[C@H](C)[C@@H](O)COc1ccccc1.Cl` (racemic), the results for the Kb in the data set with Felis catus [1] and in the data set on Felis catus [2] were 501 nM and 151 nM, respectively. Further, the results for the Ratio with Felis catus [3] and in the data set with Felis catus [5] were 0.3 and 3, respectively. The logD in data set [4] was -0.244.

On to `COc1ccc(CCN[C@H](C)[C@@H](O)COc2ccccc2)cc1OC.Cl` (racemic), for which the Kb in the data set on Felis catus [1] is 219 nM; in the data set with Felis catus [2] it was above 10000 nM. Further, in the data set with Felis catus [3], the Ratio is given as above 40. The logD in data set [4] is 1.66.

Turning to `CC(C)N[C@@H](C)[C@@H](O)COc1ccccc1.O=C(O)C(=O)O` (racemic), the Kb in the data set on Felis catus [1] was 2190 nM; in the data set with Felis catus [2] it was 631 nM. Also, the Ratio in the data set with Felis catus [3] was 0.3; in the data set with Felis catus [5] it was 3. Also, the logD in data set [4] was -0.244.

For the compound `CC(C)N[C@H](c1ccccc1)[C@@H](O)COc1ccccc1` (racemic), the Kb in the data set with Felis catus [1] and with Felis catus [2] was above 10000 nM each time. Further, the logD in data set [4] was 2.1.

For `Cc1ccc([C@@H](O)[C@H](C)NC(C)C)cc1` (racemic), the Kb was above 10000 nM in the data set on Felis catus [1] and 3390 nM in the data set with Felis catus [2]. In the data set with Felis catus [3], the Ratio is below 0.3. For the same compound, the logD in data set [4] was 0.149.

Turning to `Cc1ccc(OCC(O)CNC(C)C)cc1` (racemic), the Kb in the data set with Felis catus [1] and with Felis catus [2] was 234 nM in each case. For the same compound, in the data set on Felis catus [3], the Ratio came out at 1. The logD in data set [4] is 0.423.

Take `CC(C)NCC(O)COc1ccccc1` (racemic): the results for the Kb with Felis catus [1] and in the data set with Felis catus [2] were 44.7 nM and 204 nM, respectively. The Ratio in the data set with Felis catus [3] turned out to be 5. For the same compound, the Selectivity ratio in the data set filed under Cavia porcellus was 25. The logD in data set [4] was -0.137.

For the compound `CC(=O)Nc1ccc(OCC(O)CNC(C)C)cc1` (racemic) [PRACTOLOL], the Kb with Felis catus [1] was 229 nM; with Felis catus [2], 5010 nM. Besides, the Ratio in the data set on Felis catus [3] was found to be 22. Further, the logD in data set [4] was -1.05.
